Counter-ions that a name gives are not always drawn. Like-named read-outs stand apart in the source and are kept apart here.

As a reminder, the IC50 is the concentration that gives 50% inhibition.

One assay relates to T47D cells. Nature of the assay: Cell-based assay: anti-proliferative activity, Cell Counting Kit-8, 72 hours (T47D). The following applies: Homo sapiens, T47D, 72 h. The procedure, abridged: (§1)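 T47D, A549 and BT-549 cells, with MELK-negative HT-1197 as control (MELK status checked by western blot), seeded at 2,000–3,000 cells/well. Growth measured by CCK-8 72 hours after inhibitor exposure; IC50 values calculated.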
A general note: Formazan colour is commonly taken as a measure of viable cells.

For the next assay, the system named is HT-1197 cells. The assay can be described thus: Cell-based assay: anti-proliferative activity, Cell Counting Kit-8, 72 hours (HT-1197, negative control without MELK expression). The settings on record: Homo sapiens, HT1197, 72 h, 72 hours. The procedure, abridged: as §1
In a further assay the test system is DU4475 cells. Nature of the assay: Cell-based assay: anti-proliferative activity, Cell Counting Kit-8, 72 hours (DU4475). The settings on record: Homo sapiens, DU-4475.
The subject of the next assay is A549 cells. The assay can be described thus: Cell-based assay: anti-proliferative activity, Cell Counting Kit-8, 72 hours (A549). The settings on record: Homo sapiens, A549, 72 h, 72 hours. The gist of the method: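 A549 cells seeded in 96-well plates and exposed to candidate inhibitors for 72 hours. Growth measured with Cell Counting Kit-8; IC50 values calculated from the dose response.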

In another assay the test system is 22Rv1 cells. The assay can be described thus: Cell-based assay: anti-proliferative activity, Cell Counting Kit-8, 72 hours (22Rv1). The settings on record: Homo sapiens.
The target in another assay is MELK (Homo sapiens, UniProt Q14680). Nature of the assay: Kinase assay: MELK activity, phosphorylation of FITC-labeled histone H3 peptide measured by IMAP fluorescence polarization. Format: biochemical. The following applies: read-out: IC50 (μM) (kinase assay). The procedure, abridged: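 A FITC-labelled histone H3 peptide served as substrate, with compounds serially diluted to 1% DMSO final. Reactions were stopped with three volumes of IMAP progressive binding solution. After 0.5 h at room temperature, fluorescence polarization was read.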
MELK, sequence (Q14680 whole entry, looked up): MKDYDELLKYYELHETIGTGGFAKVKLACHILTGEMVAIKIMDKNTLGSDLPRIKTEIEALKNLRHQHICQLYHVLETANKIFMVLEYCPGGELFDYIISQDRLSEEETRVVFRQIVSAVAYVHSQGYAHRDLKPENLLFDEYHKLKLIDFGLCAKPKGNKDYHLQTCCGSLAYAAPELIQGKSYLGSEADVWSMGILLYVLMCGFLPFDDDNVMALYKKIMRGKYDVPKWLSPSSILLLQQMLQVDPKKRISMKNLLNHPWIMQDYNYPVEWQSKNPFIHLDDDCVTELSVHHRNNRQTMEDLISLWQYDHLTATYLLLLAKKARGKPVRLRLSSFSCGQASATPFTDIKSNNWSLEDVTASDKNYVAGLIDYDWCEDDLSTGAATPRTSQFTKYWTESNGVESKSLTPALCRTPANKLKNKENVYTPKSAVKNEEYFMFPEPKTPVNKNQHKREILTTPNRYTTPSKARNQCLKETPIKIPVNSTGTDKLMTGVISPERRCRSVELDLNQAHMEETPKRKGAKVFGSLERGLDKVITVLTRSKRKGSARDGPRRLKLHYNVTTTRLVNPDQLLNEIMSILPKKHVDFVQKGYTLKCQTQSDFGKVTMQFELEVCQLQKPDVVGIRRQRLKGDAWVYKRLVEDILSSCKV
(In general: In fluorescence polarisation assays a small probe gives low polarisation when free and higher when bound to something large.)

The subject of the next assay is DU4475. The assay can be described thus: Cell-based assay: anti-proliferative activity, Cell Counting Kit-8, 72 hours (DU4475). The settings on record: Homo sapiens, DU-4475, DU4475 cells.
The mark [1] stands for this setting: HT1197 cells (negative control).
Where [2] appears, read: MELK kinase assay, IMAP fluorescence polarization, 50 micro-M ATP.
Setting [3] is: HT1197 cells (negative control, no MELK expression).
The mark [4] stands for this setting: 50 micro-M ATP, FITC-labeled histone H3 peptide substrate, IMAP fluorescence polarization.

In the case of `CC(=O)c1cnc2ccc(-c3cc(Cl)c(O)c(Cl)c3)cc2c1Nc1ccc(S(=O)(=O)N2CCN(C)CC2)cc1` [Example 887, 1-(6-(3,5-dichloro-4-hydroxyphenyl)-4-((4-((4-methylpiperazin-1-yl)sulfonyl)phenyl)amino)quinolin-3-yl)ethanone hydrochloride], the IC50 in the assay with T47D cells is 1.3 µM; in the assay on HT-1197 cells (setting [1]) it was 100 µM; in the assay with DU4475 cells, 100 µM; with A549 cells it was 100 µM.

For the molecule `CC(=O)c1cnc2ccc(-c3cc(Cl)c(O)c(Cl)c3)cc2c1N[C@H]1CC[C@H](NC(=O)[C@@H](N)C(C)(C)C)CC1` [Example 922, (S)-N-((1r,4S)-4-((3-acetyl-6-(3,5-dichloro-4-hydroxyphenyl)quinolin-4-yl)amino)cyclohexyl)-2-amino-3,3-dimethylbutanamide hydrochloride], the IC50 in the assay on T47D cells is 0.2 µM; with HT-1197 cells (setting [1]), 4.5 µM; in the assay with DU4475 cells it was 0.21 µM; in the assay on 22Rv1 cells, 0.65 µM; with A549 cells, 0.62 µM.

With `CN(C)C1CCN(c2ccc(Nc3c(S(C)(=O)=O)cnc4ccc(-c5cc(Cl)c(O)c(Cl)c5)cc34)cn2)C1` (stereo not drawn) [Example 906, 2,6-dichloro-4-(4-((6-(3-(dimethyl-amino)pyrrolidin-1-yl)pyridin-3-yl)amino)-3-(methylsulfonyl)quinolin-6-yl)phenol hydrochloride], the IC50 with T47D cells amounted to 1.3 µM; in the assay with HT-1197 cells (setting [1]), 9.3 µM; in the assay on DU4475 cells it was 0.66 µM; in the assay with 22Rv1 cells, 2 µM; with A549 cells, 2 µM.

As to `CN(C)C[C@H]1CC[C@H](Nc2c(C(=O)C(C)(C)C)cnc3ccc(-c4cc(Cl)c(O)c(Cl)c4)cc23)CC1` [Example 918, 1-(6-(3,5-dichloro-4-hydroxyphenyl)-4-((1R,4R)-4-((dimethylamino)methyl)cyclohexyl)amino)quinolin-3-yl)-2,2-dimethylpropan-1-one hydrochloride], the IC50 with T47D cells came out at 3 µM; in the assay on HT-1197 cells (setting [1]) it was 10 µM; in the assay on DU4475 cells, 3.2 µM; in the assay with 22Rv1 cells, 6.6 µM; in the assay with A549 cells, 5.5 µM.

For `CC(=O)c1cnc2ccc(-c3cc(Cl)c(O)c(Cl)c3)cc2c1Nc1cncc(CCN2CCCC2)c1` [Example 873, 1-(6-(3,5-dichloro-4-hydroxyphenyl)-4-((5-(2-(pyrrolidin-1-yl)ethyl)pyridin-3-yl)amino)quinolin-3-yl)ethanone hydrochloride], the IC50 in the assay on T47D cells is 100 µM; with HT-1197 cells (setting [1]), 100 µM; at MELK (setting [2]), 0.0067 µM; in the assay with DU4475 cells it was 0.17 µM; in the assay with A549 cells, 0.35 µM.

As for `O=C(c1cnc2ccc(-c3cc(Cl)c(O)c(Cl)c3)cc2c1Nc1cncc(CCN2CCCC2)c1)C1CC1` [Example 881, cyclopropyl(6-(3,5-dichloro-4-hydroxyphenyl)-4-((5-(2-(pyrrolidin-1-yl)ethyl)pyridin-3-yl)amino)quinolin-3-yl)methanone], the IC50 with T47D cells was 100 µM; in the assay with HT-1197 cells (setting [1]), 100 µM; on MELK (setting [2]), 0.0064 µM; in the assay on DU4475 cells it was 0.078 µM; with A549 cells, 0.15 µM.

`N#Cc1ncc(-c2ccc3ncc(C(=O)C4CC4)c(Nc4ccc(CN5CCOCC5)cc4)c3c2)cn1` [Example 461]: the IC50 in the assay on T47D cells turned out to be 0.17 µM; with HT-1197 cells (setting [3]), 2 µM; on MELK (setting [4]), 0.015 µM; in the assay on DU4475, 0.41 µM; in the assay with A549 cells, 1.6 µM.

In the case of `COc1cc(-c2ccc3ncc(C(C)=O)c(N[C@H]4CC[C@H](CN(C)C)CC4)c3c2)cc(Cl)c1O` [Example 392], the half-inhibitory concentration (IC50) with T47D cells was found to be 0.25 µM; with HT-1197 cells (setting [3]), 10 µM; on MELK (setting [4]), 0.0034 µM; with DU4475, 0.44 µM; with A549 cells, 0.27 µM.

In the case of `NC[C@H]1CC[C@H](Nc2c(C(=O)C3CC3)cnc3ccc(-c4cc(Cl)c(O)c(Cl)c4)cc23)CC1` [Example 495, {4-[trans-4-(Aminomethyl)cyclohexylamino]-6-(3,5-dichloro-4-hydroxyphenyl)quinolin-3-yl}(cyclopropyl)methanone], the IC50 in the assay with T47D cells is 0.045 µM; in the assay on HT-1197 cells (setting [3]), 3.9 µM; on MELK it was 0.0029 µM; with DU4475 it was 0.018 µM; in the assay with A549 cells, 0.35 µM.

As for `CN(C)C[C@H]1CC[C@H](Nc2c(S(C)(=O)=O)cnc3ccc(-c4cc(Cl)c(O)c(Cl)c4)cc23)CC1` [Example 420, 2,6-dichloro-4-(4-((1R,4R)-4-((dimethylamino)methyl)cyclohexylamino)-3-(methylsulfonyl)quinolin-6-yl)phenol], the IC50 in the assay with T47D cells was 0.47 µM; in the assay with HT-1197 cells (setting [3]) it was 2.5 µM; at MELK (setting [4]), 0.0023 µM; in the assay with DU4475 it was 0.14 µM; in the assay with A549 cells, 0.69 µM.

For the molecule `C[S+]([O-])c1cnc2ccc(-c3ccc(O)c(Cl)c3)cc2c1N[C@H]1CC[C@H](N)CC1` (stereo partly drawn) [Example 499], the IC50 with T47D cells turned out to be 2.7 µM; with HT-1197 cells (setting [3]), 18 µM; at MELK, 0.036 µM; with DU4475 it was 2.5 µM; in the assay with A549 cells, 9.7 µM.

Turning to `COc1cc(-c2ccc3ncc(C(C)=O)c(Nc4ccc(N5CCN(C)CC5)nc4)c3c2)cc(Cl)c1O` [Example 483, 1-(6-(3-chloro-4-hydroxy-5-methoxyphenyl)-4-(6-(4-methylpiperazin-1-yl)pyridin-3-ylamino)quinolin-3-yl)ethanone], the IC50 in the assay on T47D cells is 0.64 µM; in the assay on HT-1197 cells (setting [3]), 0.89 µM; at MELK it was 0.016 µM; in the assay on DU4475, 0.69 µM; with A549 cells, 0.64 µM.

Take `CC(=O)c1cnc2ccc(-c3cc(F)c(O)c(Cl)c3)cc2c1N1CCN(C(=O)CN(C)C)CC1` [Example 484, 1-(4-(3-acetyl-6-(3-chloro-5-fluoro-4-hydroxyphenyl)quinolin-4-yl)piperazin-1-yl)-2-(dimethylamino)ethanone]: the IC50 with T47D cells came to 1.1 µM; in the assay on HT-1197 cells (setting [3]) it was 17 µM; on MELK it was 0.0069 µM; in the assay with DU4475, 0.58 µM; in the assay with A549 cells it was 3.4 µM.

Take `COc1cc(-c2ccc3ncc(C(=O)C4CC4)c(N[C@H]4CC[C@H](CN)CC4)c3c2)cc(Cl)c1O` [Example 493, {4-[trans-4-(Aminomethyl)cyclohexylamino]-6-(3-chloro-4-hydroxy-5-methoxyphenyl)quinolin-3-yl}(cyclopropyl)methanone]: the IC50 is 0.078 µM with T47D cells; 0.82 µM in the assay on HT-1197 cells (setting [3]); 0.003 µM on MELK; 0.068 µM in the assay with DU4475; 0.095 µM in the assay with A549 cells.

Take `CN1CCN(c2ccc(Nc3c(C(=O)C4CC4)cnc4ccc(-c5cnc(C#N)nc5)cc34)cn2)CC1` [Example 469]: the IC50 was 0.18 µM with T47D cells; 1.4 µM with HT-1197 cells (setting [3]); 0.0015 µM at MELK; 0.43 µM in the assay on DU4475; 0.99 µM in the assay with A549 cells.

Consider `CN(C)Cc1ccc(Nc2c(S(C)(=O)=O)cnc3ccc(-c4cc(F)c(O)c(Cl)c4)cc23)cc1` [Example 399, 2-chloro-4-(4-(4-((dimethylamino)methyl)phenylamino)-3-(methylsulfonyl)quinolin-6-yl)-6-fluorophenol], for which the IC50 in the assay with T47D cells is 0.27 µM; in the assay on HT-1197 cells (setting [3]), 1.9 µM; on MELK (setting [4]), 0.016 µM; in the assay with DU4475, 0.16 µM; with A549 cells, 0.47 µM.

Regarding `C[S+]([O-])c1cnc2ccc(-c3cc(Cl)c(O)c(Cl)c3)cc2c1N[C@H]1CC[C@H](N)CC1` (stereo partly drawn) [Example 491], the IC50 is 7 µM in the assay on T47D cells; 10 µM with HT-1197 cells (setting [3]); 0.0075 µM at MELK; 2.9 µM with DU4475; 10 µM in the assay with A549 cells.

As for `COc1cc(-c2ccc3ncc(C(=O)C4CC4)c(-c4ccc(C(=O)N5CCN(C)CC5)cc4)c3c2)cc(Cl)c1O` [Example 476, (4-(6-(3-chloro-4-hydroxy-5-methoxyphenyl)-3-(cyclopropanecarbonyl)quinolin-4-yl)phenyl)(4-methylpiperazin-1-yl)methanone], the IC50 with T47D cells turned out to be 0.23 µM; with HT-1197 cells (setting [3]) it was 2.1 µM; at MELK, 0.0081 µM; in the assay on DU4475, 0.5 µM; in the assay on A549 cells it was 0.31 µM.

On to `CC(=O)c1cnc2ccc(-c3cc(F)c(O)c(Cl)c3)cc2c1Nc1ccc(S(=O)(=O)N2CCN(C)CC2)cc1` [Example 894, 1-(6-(3-chloro-5-fluoro-4-hydroxy-phenyl)-4-((4-((4-methylpiperazin-1-yl)sulfonyl)phenyl)amino)quinolin-3-yl)ethanone hydrochloride], for which the IC50 came to 1.5 µM with T47D cells; 63 µM in the assay with HT-1197 cells (setting [1]); 0.039 µM on MELK (setting [2]); 100 µM in the assay on DU4475 cells; 100 µM in the assay with A549 cells.

Take `CN1CCN(Cc2cccc(-c3c(C(=O)C4CC4)cnc4ccc(-c5cc(Cl)c(O)c(Cl)c5)cc34)c2)CC1` [Example 478, cyclopropyl(6-(3,5-dichloro-4-hydroxyphenyl)-4-(3-((4-methylpiperazin-1-yl)methyl)phenyl)quinolin-3-yl)methanone]: the half-inhibitory concentration (IC50) amounted to 0.53 µM in the assay with T47D cells; 2.9 µM in the assay on HT-1197 cells (setting [3]); 0.0078 µM at MELK; 0.75 µM in the assay with DU4475; 0.87 µM with A549 cells.
